tested on: Human neural progenitor cells expanded in EGF/bFGF/LIF (991013FBr); test: Importance of the various factors for TH induction; assay type: cell-based; details: one factor omitted from the cocktail of Example 1, 3 days
Protocol: Cultures of human neural progenitors established from human fetal forebrain expanded in N2 medium supplemented with EGF/bFGF/LIF or EGF/bFGF/CNTF as indicated were mechanically passaged and maintained in expansion medium for 5-7 days. The small spheres were then plated on glass coverslips coated with poly-L-lysine (PLL, 100 μg/ml) and laminin (50 μg/ml) at a cell density of 100.000 cells/cm^2 in N2 medium containing 1% FBS for “default differentiation” or in N2 medium supplemented with aFGF (100 ng/ml), BDNF (50 ng/ml), forskolin (25 μM), DA (10 μM), TPA (100 nM), dbcAMP (100 μM), GDNF (20 ng/ml), IGFI (100 ng/ml), IL-1α (200 pg/ml). N2 medium consists of DMEM:F12 (1:1) supplemented with N2 (insulin, transferrin, selenium, progesterone and putrescine), 0.6% glucose and 5 mM HEPES. After 3 days incubation, cells were fixed in 4% paraformaldehyde in PBS for 20 min at room temperature. The cells were washed three times with PBS, followed by overnight incubation with primary antibody (rabbit anti-TH, PelFreez 1:100 or Chemicon 1:800) diluted in PBS incubation buffer which contained 10% normal goat serum, 0.3% Triton X-100 (Sigma) and 1% BSA at 4° C. in a humidified chamber. The cells were washed with PBS, and incubated for 1 hr at room temperature in the dark with secondary antibody (anti-rabbit Cy3, (Chemicon 1:500) diluted in incubation buffer. After washing with PBS, nuclei were counterstained with DAPI or Hoechst 33342. Negative controls (omission of the primary antibody) were included in each experiment.
To quantify the percentage of TH cells, cells were counted in at least three fields from three to six independent coverslips randomly chosen using a 20× objective. The number of TH-immunoreactive cells in each field was counted. The total cell number was obtained by counting nuclei counterstained with DAPI or Hoechst 33342.
Human neural progenitor cells expanded in EGF/bFGF/LIF (991013FBr) cells were seeded as small spheres (5 days after trituration to single cell suspension) on PLL/laminin coated 12 mm coverslips at a cell density of 100.000 cells/cm^2 in N2 medium containing different combinations of the factors described in Example 1. After incubation for 3 days, cells were fixed in 4% PFA and immunostained for TH as described in Example 1.

Molecule	effect of omitting the factor from the cocktail on induction of TH positive cells
NCCc1ccc(O)c(O)c1 [dopamine, reference compound]	did not affect induction of TH positive cells
IGF-I: Insulins (IGF-I, IGF-II, insulin)	did not affect induction of TH positive cells
BDNF: Brain Derived Neurotrophic Factor	did not affect induction of TH positive cells
IL-1α: Interleukin (protein, UniProt P01583 113-271, looked up) Interleukin-1 alpha: SAPFSFLSNVKYNFMRIIKYEFILNDALNQSIIRANDQYLTAAALHNLDEAVKFDMGAYKSSKDDAKITVILRISKTQLYVTAQDEDQPVLLKEMPEIPKTITGSETNLLFFWETHGTKNYFTSVAHPNLFIATKQDYWVCLAGGPPSITDFQILENQA	did not affect induction of TH positive cells
GDNF: Glial cell-line Derived Neurotrophic Factor (protein, UniProt P39905 78-211, looked up) Glial cell line-derived …: SPDKQMAVLPRRERNRQAAAANPENSRGKGRRGQRGKNRGCVLTAIHLNVTDLGLGYETKEELIFRYCSGSCDAAETTYDKILKNLSRNRRLVSDKVGQACCRPIAFDDDLSFLDDNLVYHILRKHSAKRCGCI	did not affect induction of TH positive cells

same assay, conditions: same concentration (100 ng/ml), 3 days

Molecule	effect of replacing FGF-1/aFGF in the cocktail on TH immunoreactive cells
FGF-2/bFGF: basic fibroblast growth factor	without any effect on numbers or morphology of TH immunoreactive cells
